Laboratory results reported in US20220152154A1, “GROWTH DIFFERENTIATION FACTOR 15 COMBINATION THERAPY” (Amgen Inc., priority 2019, published 2022).

How the values were obtained:
[1] = Body weight change in DIO mice treated for 5 weeks; format: in vivo; design: key to Significance of Body Weight Change: ns: not significant; *: p < 0.05; **: p < 0.005; ***: p < 0.001; ****: p < 0.0001; conditions: subcutaneous; for Significance of Body Weight Change: male C57Bl/6 DIO mice, 2-way ANOVA with Dunnett's analysis
Experimental: (§1) Male C57Bl/6 DIO mice, 19-20 weeks old (13-14 weeks on high fat diet) at beginning of dosing, were placed into the following treatment groups: Group A—Vehicle, in which the animals were administered vehicle weekly; Group B—Dulaglutide, in which the animals were administered 0.1 mg/kg (2 nmol/kg) of dulaglutide twice per week; Group C—GIPR Ab, in which the animals were administered 5 mg/kg (33 nmol/kg) of antibody 2.63.1 (having a light and heavy chain sequence of SEQ ID NOs: 105 and 106, respectively) weekly and vehicle weekly (the latter being on the alternate dulaglutide dosing day); Group D—GDF15, in which the animals were administered 0.125 mg/kg (1 nmol/kg) of FcΔ10(−)-(G4S)4-GDF15 (SEQ ID NO: 39) (along with its heterodimerization partner, FcΔ10(+,K) (SEQ ID NO: 32)) weekly and vehicle weekly (the latter on the alternate dulaglutide dosing day); Group E—GDF15+Dulaglutide, in which the animals were administered 0.125 mg/kg (1 nmol/kg) of FcΔ10(−)-(G4S)4-GDF15) (along with its heterodimerization partner, FcΔ10(+,K)) weekly and 0.1 mg/kg (2 nmol/kg) of dulaglutide twice per week; Group F—GDF15+GIPR Ab, in which the animals were administered 0.125 mg/kg (1 nmol/kg) of FcΔ10(−)-(G4S)4-GDF15 (along with its heterodimerization partner, FcΔ10(+,K)) weekly and 5 mg/kg (33 nmol/kg) of antibody 2.63.1 weekly. The animals were dosed for 5 weeks with through subcutaneous injection.
Body weight was measured twice per week.

[2] = Food intake measured three consecutive days per week; format: in vivo; design: key: ns: not significant; *: p < 0.05; **: p < 0.005; ***: p < 0.001; ****: p < 0.0001; conditions: male C57Bl/6 DIO mice, 2-way ANOVA with Dunnett's analysis
Experimental: as §1

Question: What does the source list for dulaglutide [reference compound]?
Answer: Significance of Body Weight Change ([1]; D0): ns; Significance of Body Weight Change ([1]; D3): ns; Significance of Body Weight Change ([1]; D7): ns; Significance of Body Weight Change ([1]; D10): ** (p < 0.005); Significance of Body Weight Change ([1]; D14): ** (p < 0.005); Significance of Body Weight Change ([1]; D17): **** (p < 0.0001); Significance of Body Weight Change ([1]; D21): *** (p < 0.001); Significance of Body Weight Change ([1]; D31): *** (p < 0.001); Significance of Body Weight Change ([1]; D35): *** (p < 0.001); Significance of Body Weight Change ([1]; D-4): ns; change in body weight ([1]; five weeks after treatment, DIO mice): −1.96%; Significance of Food Intake Assay ([2]; D2): ns; Significance of Food Intake Assay ([2]; D8): ns; Significance of Food Intake Assay ([2]; D9): ns; Significance of Food Intake Assay ([2]; D10): ns; Significance of Food Intake Assay ([2]; D15): ns; Significance of Food Intake Assay ([2]; D16): ns; Significance of Food Intake Assay ([2]; D17): * (p < 0.05); Significance of Food Intake Assay ([2]; D22): **** (p < 0.0001); Significance of Food Intake Assay ([2]; D23): ns; Significance of Food Intake Assay ([2]; D24): ns; Significance of Food Intake Assay ([2]; D29): ns; Significance of Food Intake Assay ([2]; D30): ns; Significance of Food Intake Assay ([2]; D31): ns
